Laboratory results reported in the supplement of paper PMC8976852.
± gives the standard deviation of the averaged measurements.

What was measured:
Test in all cases: activity (1 - area under the dose-response curve within the screened range) (fraction); higher = more sensitive
Conditions in all cases: treatment time: 72 h
[1] = system: HCM-SANG-0266-C20 (colorectal cancer organoid)
Procedure: (§1)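 Patient-derived cancer organoids (colorectal and oesophageal, HCM-SANG models) were grown for up to 6 months in 5% or 80% ECM (BME-2), then seeded in 384-well plates on an ECM layer and treated with 72 compounds for 3 days. Each compound used a 7-point half-log dilution series spanning a 1000-fold range, in technical triplicate and biological duplicate. Dose-response curves were fitted with a non-linear mixed effects model; fits with RMSE > 0.3 were removed, and activity = 1 - AUC within the screened dose range (0 = no activity, 1 = maximum).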

[2] = system: HCM-SANG-0270-C20 (colorectal cancer organoid)
Procedure: as §1

[3] = system: HCM-SANG-0291-C15 (oesophageal cancer organoid)
Procedure: as §1

[4] = system: HCM-SANG-0532-C20 (colorectal cancer organoid)
Procedure: as §1

[5] = ECM percentage in culture prior to screening 5 %
[6] = ECM percentage in culture prior to screening 80 %

Row | SMILES | activity [1, 5] | activity [1, 6] | activity [2, 5] | activity [2, 6] | activity [3, 5] | activity [3, 6] | activity [4, 5] | activity [4, 6]
1 | COc1ccc(-c2ccc3c(N4CCOC[C@@H]4C)nc(N4CCOC[C@@H]4C)nc3n2)cc1CO [AZD8055] | 0.298 ± 0.097 | 0.251 ± 0.12 | 0.117 ± 0.043 | 0.0699 ± 0.062 | 0.076 ± 0.03 | 0.0634 ± 0.032 | 0.237 ± 0.076 | 0.301 ± 0.039
2 | CC(=O)O[C@@]12CO[C@@H]1C[C@H](O)[C@@]1(C)C(=O)[C@H](O)C3=C(C)[C@@H](OC(=O)[C@H](O)[C@@H](NC(=O)OC(C)(C)C)c4ccccc4)C[C@@](O)([C@@H](OC(=O)c4ccccc4)[C@H]21)C3(C)C [Docetaxel] | 0.237 ± 0.033 | 0.19 ± 0.031 | 0.0873 ± 0.042 | 0.14 ± 0.08 | 0.161 ± 0.058 | 0.188 ± 0.05 | 0.128 ± 0.028 | 0.158 ± 0.017
3 | C=CCn1c(=O)c2cnc(Nc3ccc(N4CCN(C)CC4)cc3)nc2n1-c1cccc(C(C)(C)O)n1 [MK-1775] | 0.407 ± 0.048 | 0.348 ± 0.044 | 0.255 ± 0.042 | 0.205 ± 0.11 | 0.257 ± 0.036 | 0.24 ± 0.051 | 0.156 ± 0.019 | 0.19 ± 0.027
4 | Nc1ccn([C@@H]2O[C@H](CO)[C@@H](O)C2(F)F)c(=O)n1 [Gemcitabine] | 0.624 ± 0.097 | 0.465 ± 0.13 | 0.337 ± 0.13 | 0.234 ± 0.17 | 0.813 ± 0.021 | 0.801 ± 0.049 | 0.247 ± 0.042 | 0.423 ± 0.04
5 | CC(=O)Nc1cccc(-n2c(=O)n(C3CC3)c(=O)c3c(Nc4ccc(I)cc4F)n(C)c(=O)c(C)c32)c1 [Trametinib] | 0.207 ± 0.078 | 0.0946 ± 0.067 | 0.0906 ± 0.051 | 0.0586 ± 0.043 | 0.1 ± 0.019 | 0.0654 ± 0.02 | 0.114 ± 0.065 | 0.146 ± 0.024
6 | CCNC(=O)C[C@@H]1N=C(c2ccc(Cl)cc2)c2cc(OC)ccc2-n2c(C)nnc21 [I-BET-762] | 0.121 ± 0.041 | 0.0782 ± 0.04 | 0.0441 ± 0.019 | 0.0339 ± 0.019 | 0.0724 ± 0.037 | 0.068 ± 0.015 | 0.0448 ± 0.021 | 0.0841 ± 0.035
7 | CN(C)C/C=C/C(=O)Nc1cc2c(Nc3ccc(F)c(Cl)c3)ncnc2cc1O[C@H]1CCOC1 [Afatinib] | 0.308 ± 0.13 | 0.217 ± 0.11 | 0.311 ± 0.11 | 0.153 ± 0.13 | 0.414 ± 0.064 | 0.316 ± 0.06 | 0.171 ± 0.1 | 0.243 ± 0.07
8 | O=C(CCCCCCC(=O)Nc1ccccc1)NO [Vorinostat] | 0.225 ± 0.032 | 0.172 ± 0.032 | 0.163 ± 0.017 | 0.153 ± 0.028 | 0.232 ± 0.021 | 0.222 ± 0.03 | 0.132 ± 0.022 | 0.211 ± 0.034
9 | O=C(O)C1(C(=O)O)CCC1.[NH2-].[NH2-].[Pt+2] [Carboplatin] | 0.0268 ± 0.0076 | 0.0392 ± 0.024 | 0.0338 ± 0.02 | 0.0325 ± 0.013 | 0.0362 ± 0.017 | 0.0271 ± 0.011 | 0.0573 ± 0.015 | 0.0352 ± 0.013
10 | CCc1cncnc1N1CCN(Cc2nc3ccc(C(F)(F)F)cc3[nH]2)CC1 | 0.206 ± 0.033 | 0.155 ± 0.029 | 0.127 ± 0.026 | 0.162 ± 0.031 | 0.0688 ± 0.038 | 0.0744 ± 0.019 | 0.222 ± 0.04 | 0.426 ± 0.041
11 | O=C1NC(=NCc2cccs2)S/C1=C\c1ccc2ncccc2c1 [RO-3306] | 0.123 ± 0.017 | 0.152 ± 0.035 | 0.0909 ± 0.041 | 0.0974 ± 0.033 | 0.0636 ± 0.017 | 0.0709 ± 0.026 | 0.117 ± 0.033 | 0.108 ± 0.016
12 | CC1(C)CCC(c2ccc(Cl)cc2)=C(CN2CCN(c3ccc(C(=O)NS(=O)(=O)c4ccc(N[C@H](CCN5CCOCC5)CSc5ccccc5)c(S(=O)(=O)C(F)(F)F)c4)cc3)CC2)C1 [Navitoclax] | 0.327 ± 0.03 | 0.358 ± 0.051 | 0.201 ± 0.033 | 0.188 ± 0.047 | 0.125 ± 0.032 | 0.121 ± 0.029 | 0.314 ± 0.045 | 0.288 ± 0.075
13 | COCC1(CO)C(=O)C2CCN1CC2 (stereo not drawn) [PRIMA-1MET] | 0.0344 ± 0.016 | 0.0318 ± 0.016 | 0.0251 ± 0.01 | 0.0283 ± 0.0083 | 0.0344 ± 0.019 | 0.0328 ± 0.011 | 0.074 ± 0.023 | 0.0388 ± 0.016
14 | C#Cc1cccc(Nc2ncnc3cc(OCCOC)c(OCCOC)cc23)c1 [Erlotinib] | 0.171 ± 0.037 | 0.129 ± 0.053 | 0.148 ± 0.1 | 0.121 ± 0.086 | 0.204 ± 0.026 | 0.198 ± 0.033 | 0.207 ± 0.091 | 0.209 ± 0.06
15 | O=c1cc(-c2cccc3c2Sc2ccccc2S3)oc(N2CCOCC2)c1 | 0.0362 ± 0.021 | 0.0433 ± 0.027 | 0.0345 ± 0.015 | 0.0384 ± 0.0084 | 0.068 ± 0.034 | 0.0493 ± 0.031 | 0.0709 ± 0.021 | 0.037 ± 0.01
16 | O=C(c1cc(Cc2n[nH]c(=O)c3ccccc23)ccc1F)N1CCN(C(=O)C2CC2)CC1 [Olaparib] | 0.0602 ± 0.028 | 0.0424 ± 0.017 | 0.0818 ± 0.017 | 0.0664 ± 0.027 | 0.0587 ± 0.015 | 0.0412 ± 0.017 | 0.0528 ± 0.018 | 0.0726 ± 0.027
17 | CS(=O)(=O)CCNCc1ccc(-c2ccc3ncnc(Nc4ccc(OCc5cccc(F)c5)c(Cl)c4)c3c2)o1 [Lapatinib] | 0.21 ± 0.071 | 0.132 ± 0.082 | 0.157 ± 0.057 | 0.106 ± 0.073 | 0.207 ± 0.045 | 0.189 ± 0.022 | 0.143 ± 0.069 | 0.205 ± 0.052
18 | Cc1cc(Nc2cc(N3CCN(C)CC3)nc(Sc3ccc(NC(=O)C4CC4)cc3)n2)n[nH]1 [Tozasertib] | 0.222 ± 0.09 | 0.228 ± 0.033 | 0.0983 ± 0.062 | 0.0668 ± 0.034 | 0.0578 ± 0.037 | 0.0466 ± 0.014 | 0.16 ± 0.076 | 0.123 ± 0.046
19 | Cn1c(=O)n(-c2ccc(C(C)(C)C#N)cc2)c2c3cc(-c4cnc5ccccc5c4)ccc3ncc21 [Dactolisib] | 0.254 ± 0.077 | 0.239 ± 0.092 | 0.123 ± 0.039 | 0.0768 ± 0.059 | 0.101 ± 0.035 | 0.0783 ± 0.027 | 0.193 ± 0.058 | 0.257 ± 0.025
20 | CCNC(=O)c1noc(-c2cc(C(C)C)c(O)cc2O)c1-c1ccc(CN2CCOCC2)cc1 [Luminespib] | 0.319 ± 0.046 | 0.322 ± 0.024 | 0.111 ± 0.061 | 0.0622 ± 0.041 | 0.0294 ± 0.011 | 0.0466 ± 0.038 | 0.338 ± 0.087 | 0.291 ± 0.014
21 | COc1cc2nccc(Oc3ccc(NC(=O)Nc4cc(C)on4)c(Cl)c3)c2cc1OC [Tivozanib] | 0.0203 ± 0.0013 | 0.0214 ± 0.0013 | 0.0217 ± 0.0076 | 0.0262 ± 0.01 | 0.0202 ± 0.0045 | 0.0228 ± 0.0062 | 0.0321 ± 0.016 | 0.0237 ± 0.0055
